Measured values: patent US6716961B2, “Chiral peptide nucleic acids with a N-aminoethyl-d-proline backbone” (ISIS Innovation Limited, priority 2001, dated 2004)

Legend:
poly(rA) [1] = experiment: Tm (UV melting) measurement of hybrid with poly(rA); format: binding
Protocol: (§1) FIG. 1 is a melting point curve for compound (3a) and poly (rA), (sigmoid curve with inflection at 53° C.) poly (rU) (rising straight line plot) and poly (dA) (falling straight line plot) Conditions: 10 mM sodium phosphate buffer pH 7.0; 150 mM NaCl; 1.0 μM (3a); ratio of T:A=1:1, 20% hypochromicity.
(§2) Poly(rA) (Mr˜7×10^6) and poly(rU) (Mr<9×10^5) was obtained from Fluka AG. Poly(dA) (Mr˜9.19×10^5) was obtained from Amersham Pharmacia Biotech. Poly(rI) was obtained from Sigma. The oligonucleotide, (dA)10 and fluorescent labelled (dA)10 was obtained in deprotected and hplc-purified form. All nucleic acids and oligonucleotides were used as received without further treatment.
(§3) The concentration of oligonucleotide, nucleic acid and cPNA solutions was determined from the absorbance at 260 nm (OD260). […]
(§4) Tm experiments were performed on a CARY 100 UV Spectrophotometer (Varian Ltd.) equipped with a thermal melt system. The sample for Tm measurement was prepared by mixing calculated amounts of stock oligonucleotide and cPNA solutions together to give final concentration of nucleotides and sodium phosphate buffer (pH 7.0) and the final volumes were adjusted to 3.0 mL by addition of deionized water. […] The OD260 was recorded in steps from 20-95° C. […] The results were normalized by dividing the absorbance at each temperature by the initial absorbance. […]

poly(rU) = experiment: Tm (UV melting) control experiment with poly(rU); format: binding; conditions: conditions as FIG. 1; dash with footnote b = no melting above 20° C. was observed
Protocol: as §1, §2, §3, §4

poly(rI) = experiment: Tm (UV melting) control experiment with poly(rI); format: binding; conditions: conditions as FIG. 1; dash with footnote b = no melting above 20° C. was observed
Protocol: as §1, §2, §3, §4

poly(rA) [2] = experiment: Circular dichroism spectroscopy of mixture with poly(rA); format: binding; conditions: 10 mM sodium phosphate buffer pH 7.0; 200-300 nm
Protocol: (§5) FIG. 2A is a CD spectra of mixture of poly(rA) and (3a) at different equivalents of T; inset: plot of ε260 versus equivalents of T; FIG. 2B is a CD spectra of mixture of poly(dA) and (3a) at different equivalents of T. Conditions 10 mM sodium phosphate buffer pH 7.0. The concentration of poly (rA) and poly (dA) was 10 μM based on AMP.
(§6) All CD experiments were performed on a JASCO Model J-710/720 spectropolarimeter (Oxford Centre of Molecular Sciences, Oxford). The samples were prepared by mixing calculated amounts of stock oligonucleotide and cPNA solutions together in a 10 mm quartz cell and the final volumes were adjusted to 2.00 mL by addition of deionized water containing an appropriate amount of sodium phosphate buffer pH 7.0 to give the final AMP concentration of 5 mM and phosphate buffer of 10 mM. The spectra were measured at 20° C. from 300 to 200 nm and averaged 4 times then subtracted from a spectrum of pure water under the same conditions.

poly(dA) [3] = experiment: Circular dichroism spectroscopy of mixture with poly(dA); format: binding; conditions: 10 mM sodium phosphate buffer pH 7.0; same conditions as poly(rA)
Protocol: as §5, §6

[4] = tested on: fluorescent labelled (dA)10; experiment: Gel electrophoresis with fluorescent labelled (dA)10; format: binding; conditions: F(dA)10:cPNA 1:1 to 1:10; 20% polyacrylamide gel, 90 mM TBE
Excerpt: The gel electrophoresis apparatus used was a SE6000 Vertical Slab Gel Electrophoresis Unit (Hoefer Scientific Instruments). The gel dimensions were 10×9.5×0.075 cm. The DC power sources was an Electrophoresis power supply model EPS-301 (Amersham Pharmacia Biotech). Acrylamide and N,N-methylene bisacrylamide were obtained as a concentrated aqueous stock solution from Fluka AG. Ammonium persulfate (electrophoresis grade) was obtained from Sigma Chemical Co. Tetramethylethylenediamine (TEMED) (electrophoresis grade) and hemicals necessary for preparing buffers were of the highest purity available from BDH. The stock 0.90 M Tris-Borate-EDTA (TBE) buffer pH 8.3 and the loading buffer (30% glycerol, 0.025% bromophenol blue and 0.025% xylene cyanol FF in 90 mM TBE as well as the 20% polyacrylamide gel in 90 mM TBE was prepared according to the literature (see Essential Molecular Biology, A Practical Approach, Vol 1, Oxford, 1991, pp 89-126).
The sample was prepared by mixing calculated amounts of the fluorescent labelled (dA)10 and PNA concentrated stock solutions in an Eppendorf tube to give the final total amounts of AMP ˜1 nmol and the molar ratio of F(dA)10:cPNA=1:1, 1:2, 1:3, 1:5 and 1:10. […]

[5] = Solubility in aqueous solvents; format: physicochemical
poly(dA) [6] = experiment: Tm (UV melting) measurement of hybrid with poly(dA); format: binding; conditions: conditions as FIG. 1 (10 mM sodium phosphate pH 7.0; 150 mM NaCl; T:A=1:1); dash with footnote b = no melting above 20° C. was observed
Protocol: as §1, §2, §3, §4

Row | Substance | Tm of hybrid with poly(rA) (poly(rA) [1]; 10 mM sodium phosphate buffer pH 7.0, 150 mM NaCl, 1.0 μM (3a), T:A=1:1) [°C] | binding to poly(rA) at high salt concentration (poly(rA) [1]; 1.0 M NaCl) | Tm of hybrid with poly(rU) (poly(rU)) | Tm of hybrid with poly(rI) (poly(rI)) | change in CD signal on addition to poly(rA) (poly(rA) [2]) | change in CD signal on addition to poly(dA) (poly(dA) [3]) | binding to (dA)10 in gel electrophoresis [4] | achievable concentration in aqueous solvents [5] | solubility in aqueous solvents [5] | Tm of hybrid with poly(dA) (poly(dA) [6]) [°C]
1 | H-[(ψ-CH2)Gly-D-Pro(T)]10-LysNH2 [(3a)] | 53 | no binding | no observable melting curve | no observable melting curve | strong induced CD signal with a minima at 275 nm | no significant change | lack of binding | exceeding 5 mg/mL | freely soluble in aqueous solvents | 
2 | H-[Acg(T)]10-LysNH3 [(1a)] |  |  |  |  |  |  |  |  |  | 73
3 | H-[Gly-o-Pro(cis-τ)]10-LysNH, [(2a)] |  |  |  |  |  |  |  |  |  | 70
